Results reported in patent US20020173538A1, “Method for sensitizing cancer cells to cancer therapies with a mevalonate-reducing compound” (priority 2000, published 2002).
Like-named read-outs stand apart in the source and are kept apart here. Marks after values point to notes of the source that are not given here.

Assays:
[1] = MTT cell viability assay, Hep G2 cells (serum-free DMEM); details: human, Hep G2 cells, Cell viability
Source text: (§1) Human hepatoma cell lines Hep G2 and Hep 3 were chosen as the in vitro models of hepatocytes and hepatoma, respectively.

[2] = system: Hep G2 cells; assay: as above; details: for IC50: Homo sapiens; for Cell viability (cell number): LOV 50 μM 48 hr
Source text: as §1

[3] = system: Hep 3B cells; assay: MTT cell viability assay, Hep 3B cells (serum-free DMEM)
Source text: as §1

[4] = lovastatin 50 μM 48 hr, then no taxol 48 hr
[5] = LOV 10 μM 48 hr, then LOV 10 μM without MVA another 24 hr
[6] = LOV 10 μM 48 hr, then LOV 10 μM without MVA another 48 hr
[7] = LOV 10 μM 48 hr, then LOV 10 μM without MVA another 72 hr

CC[C@H](C)C(=O)O[C@H]1C[C@@H](C)C=C2C=C[C@H](C)[C@H](CC[C@@H]3C[C@@H](O)CC(=O)O3)[C@H]21 [Lovastatin, lovastatin]
viability at 72 h, 10 μM ([1]; lovastatin 10 μM alone, 72 hr, Table 23): 57.8 ± 11.2%
viability at 96 h, 10 μM ([1]; lovastatin 10 μM alone, Table 10): 51.9 ± 4.4%
viability at 96 h, 10 μM ([1]; lovastatin 10 μM alone, Table 21): 52.4 ± 5.5%
viability at 96 h, 10 μM ([1]; lovastatin 10 μM alone, Table 25): 50.3 ± 4.9%
viability at 72 h, 10 μM ([1]; lovastatin 10 μM, 72 hr): 78.7 ± 5.3%
viability at 72 h, 20 μM ([1]; lovastatin 20 μM, 72 hr): 75.3 ± 4.2%
viability at 48 h, 50 μM [1, 4]: 14.6 ± 1.3%
viability at 72 h, 50 μM ([1]; lovastatin 50 μM, 72 hr): 58.2 ± 4.2%
IC50 ([2]; HepG2, 48 h, read-out: IC50 (cell viability), 48 hr, Table 3): 97.2 ± 2.1 µM
IC50 ([2]; HepG2, 48 h, read-out: IC50 (cell viability), 48 hr, Table 4): 97.2 µM
IC50 ([2]; HepG2, 48 h, read-out: IC50 of lovastatin (cell viability), 48 hr treatment): 97.2 ± 2.1 µM
IC50 ([2]; HepG2, 72 h, read-out: IC50 (cell viability), 72 hr, Table 3): 63.6 ± 3.7 µM
IC50 ([2]; HepG2, 72 h, read-out: IC50 (cell viability), 72 hr, Table 4): 62.3 µM
IC50 ([2]; HepG2, 72 h, read-out: IC50 of lovastatin (cell viability), 72 hr treatment): 62.3 ± 3.7 µM
IC50 ([2]; HepG2, 96 h, read-out: IC50 (cell viability), 96 hr): 13.1 µM
IC50 ([2]; HepG2, 120 h, read-out: IC50 (cell viability), 120 hr): 6.2 µM
Cell viability (cell number) ([2]; then LOV 50 μM without MVA another 24 hr): 10.6 ± 0.7^b 1 × 10^3 cells
Cell viability (cell number) ([2]; then LOV 50 μM without MVA another 48 hr): 3.6 ± 1.6^b 1 × 10^3 cells
Cell viability (cell number) ([2]; then LOV 50 μM without MVA another 72 hr): 1.7 ± 0.5^b 1 × 10^3 cells
IC50 ([3]; Homo sapiens, Hep3B, 48 h, read-out: IC50 (cell viability), 48 hr, Table 3): 62.3 ± 7.1 µM
IC50 ([3]; Homo sapiens, Hep3B, 48 h, read-out: IC50 (cell viability), 48 hr, Table 4): 63.6 µM
IC50 ([3]; Homo sapiens, Hep3B, 48 h, read-out: IC50 of lovastatin (cell viability), 48 hr treatment): 63.6 ± 7.1 µM
viability at 1 µM ([3]; Homo sapiens, Hep3B, 72 h, read-out: Cell viability, lovastatin 1 μM, 72 hr): 84.1 ± 4.5%
viability at 2 µM ([3]; Homo sapiens, Hep3B, 72 h, read-out: Cell viability, lovastatin 2 μM, 72 hr): 71.4 ± 3.8%
viability at 5 µM ([3]; Homo sapiens, Hep3B, 72 h, read-out: Cell viability, lovastatin 5 μM alone, 72 hr, Table 23): 60.7 ± 2.4%
viability at 5 µM ([3]; Homo sapiens, Hep3B, 72 h, read-out: Cell viability, lovastatin 5 μM, 72 hr): 58.8 ± 1.8%
viability at 10 µM ([3]; Homo sapiens, Hep3B, 72 h, read-out: Cell viability, lovastatin 10 μM alone, 72 hr, Table 23): 48.5 ± 2.5%
viability at 10 µM ([3]; Homo sapiens, Hep3B, 72 h, read-out: Cell viability, lovastatin 10 μM, 72 hr): 41.4 ± 1.5%
viability at 50 µM ([3]; Homo sapiens, Hep3B, 72 h, read-out: Cell viability, lovastatin 50 μM, 72 hr): 15.2 ± 1.8%
IC50 ([3]; Homo sapiens, Hep3B, 72 h, read-out: IC50 (cell viability), 72 hr, Table 3): 6.8 ± 1.3 µM
IC50 ([3]; Homo sapiens, Hep3B, 72 h, read-out: IC50 (cell viability), 72 hr, Table 4): 6.8 µM
IC50 ([3]; Homo sapiens, Hep3B, 72 h, read-out: IC50 of lovastatin (cell viability), 72 hr treatment): 6.8 ± 1.3 µM
viability at 10 µM ([3]; Homo sapiens, Hep3B, 96 h, read-out: Cell viability, lovastatin 10 μM alone, 96 hr, Table 10): 29.8 ± 1.2%
viability at 10 µM ([3]; Homo sapiens, Hep3B, 96 h, read-out: Cell viability, lovastatin 10 μM alone, 96 hr, Table 21): 27.5 ± 8.2%
viability at 10 µM ([3]; Homo sapiens, Hep3B, 96 h, read-out: Cell viability, lovastatin 10 μM alone, 96 hr, Table 25): 28.6 ± 1.7%
IC50 ([3]; Homo sapiens, Hep3B, 96 h, read-out: IC50 (cell viability), 96 hr): 5.9 µM
IC50 ([3]; Homo sapiens, Hep3B, 120 h, read-out: IC50 (cell viability), 120 hr): 1.3 µM
Cell viability ([3]; LOV 1 μM, 48 hr): 90.2 ± 0.3^b % of control
Cell viability ([3]; LOV 2 μM, 48 hr): 86.1 ± 2.0^bc % of control
Cell viability ([3]; LOV 5 μM, 48 hr): 78.6 ± 4.7^cd % of control
Cell viability ([3]; LOV 5 μM, 48 hr, Table 4): 78.6 ± 4.7^b % of control
Cell viability ([3]; LOV 5 μM, 96 hr): 56.4 ± 5.1^c % of control
Cell viability ([3]; LOV 5 μM, 120 hr): 20.3 ± 3.6^d % of control
Cell viability [3, 5]: 52.6 ± 2.6^b % of control
Cell viability (cell number) [3, 5]: 5.3 ± 0.1^b 1 × 10^3 cells
Cell viability [3, 6]: 7.3 ± 0.5^b % of control
Cell viability (cell number) [3, 6]: 1.0 ± 0.1^b 1 × 10^3 cells
Cell viability [3, 7]: 3.2 ± 1.8^b % of control
Cell viability (cell number) [3, 7]: 0.6 ± 0.5^b 1 × 10^3 cells
Cell viability ([3]; LOV 10 μM, 48 hr): 66.4 ± 0.8^de % of control
Cell viability ([3]; LOV 10 μM, 48 hr, Table 4): 66.4 ± 0.8^b % of control
Cell viability ([3]; LOV 10 μM, 96 hr): 31.7 ± 2.7^d % of control
Cell viability ([3]; LOV 10 μM, 120 hr): 6.9 ± 1.3^e % of control
Cell viability ([3]; LOV 20 μM, 48 hr): 55.7 ± 6.6^ef % of control
Cell viability ([3]; LOV 50 μM, 48 hr): 52.2 ± 1.9^f % of control
Cell viability ([3]; lovastatin 5 μM 48 hr, then no CAPE 48 hr): 64.3 ± 5.5 % of control
Cell viability ([3]; lovastatin 5 μM 48 hr, then no taxol 48 hr): 49.8 ± 7.8 % of control
Cell viability ([3]; lovastatin 5 μM 72 hr, then no taxol 48 hr): 27.7 ± 2.0 % of control
Cell viability ([3]; lovastatin 5 μM 72 hr, then no taxol 72 hr): 13.0 ± 3.0 % of control
Cell viability ([3]; lovastatin 10 μM 48 hr, then no CAO 48 hr): 47.9 ± 6.1^de % of control
Cell viability ([3]; lovastatin 10 μM 48 hr, then no CAPE 48 hr): 59.3 ± 4.5^d % of control
Cell viability ([3]; lovastatin 10 μM 48 hr, then no GL-M1 48 hr): 53.6 ± 8.2^c % of control
Cell viability ([3]; lovastatin 10 μM 48 hr, then no taxol 48 hr): 45.7 ± 3.1^d % of control
Cell viability ([3]; lovastatin 10 μM 72 hr, then no taxol 48 hr): 20.4 ± 7.0^c % of control
Cell viability ([3]; lovastatin 10 μM 72 hr, then no taxol 72 hr): 14.7 ± 3.6^d % of control
Cell viability [3, 4]: 2.9 ± 4.1 % of control
